What was measured:
[1] = system: AXL-overexpressing tumors; assay: Whole exome sequencing, untreated vs TKI-treated relapsing tumors; assay type: in vivo, mice
Experimental: (§1) Whole exome sequencing: Genomic DNA was isolated using PureLink™ Genomic DNA Mini Kit (Cat# K182002). The qualtiy of the DNA was checked by agarose gel ecltrophoresis and Qubit dsDNA HS Assay kit (Thermo Fisher Scientific). Exome sequencing libraries were prepared according to the manufacturer's instructions (Twist Human core exome kit+RefSeq Panel). Input gDNA (50 ng) from each sample was processed for enzymatic fragmentation, subsequent end repair, and dA-tailing to generate dA-tailed DNA fragments. Twist Universal Adapters were ligated to the dA-tailed DNA fragments, and purified to generate gDNA libraries ready for index introduction through amplification. A gDNA library adapted with Twist CDI primers was amplified and purified. The quality of the amplified library was confirmed using capillary electrophoresis (Bioanalyzer, Agilent). Prior to hybridization, the volume of each library was adjusted using the respective concentration of each Amplified Indexed Library. Ten libraries were multiplexed by 150 ng to give a total mass of 1500 ng. The pre-hybridization solution containing library, probes, RefSeq Panel and blockers was dried using a SpeedVac system and low heat. 0.020 ml of the fast hybridization mix was added to the dried pre-hybridization solution, and then 0.030 ml hybridization enhancer was added on top of the pre-hybridization solution. The mixture was incubated for 5 min at 95° C. and later heated for 2 hours at 60° C. in a thermal cycler (Fast Hybridization). Streptavidin Binding Beads (100 μl) were washed three times with 0.2 ml Fast Binding Buffer and re-suspended in 0.2 ml binding buffer. The hybridization mixture was added to the bead suspension and incubated for 30 min at RT with mixing. The beads were washed once, preheated in Fast Wash Buffer 1 for 5 min at 70° C., and three times with 0.2 ml of Wash Buffer2 for 5min at 48° C. DNA was eluted with 0.045 ml nuclease-free water (Streptavidin Binding Bead slurry). The captured library was amplified using PCR to enrich for fragments. The quality of the amplified libraries was verified by means of automated electrophoresis (Tapestation, Agilent). […]
(§2) Alignment and variant calling: Sequence QC was done through FastqQC 0.11.5 (Andrews 2015). Reads were mapped to human reference genome sequence (hg19; NCBI GRCh37) using bwa 0.7.12 (H. Li and Durbin 2009). […]
(§3) Animal experiments: All animal studies were approved by our institutional board and they were performed in accordance with the guidelines of the Institutional Animal Care and Use Committee (IACUC). […] Tumor volume was estimated using vernier caliper measurements of the longest axis, a/mm, and the perpendicular axis, b/mm Volumes were calculated in accordance with the equation V=(4 π/3)×(a/2)^2×(b/2). […]

[2] = system: PC9 tumors; assay: as above; assay type: in vivo, mice
Experimental: as §1, §2, §3

[3] = system: AXL; assay: Re-analysis of AXL mRNA levels in a published patient dataset; assay type: in vivo; conditions: 23 patients, specimens prior to and after treatment, p<0.05
Text: FIGS. 1A-G: Upregulation of AXL is essential for resistance and tolerance. (A) PC9 cells (2×10^6) were subcutaneously implanted in nude mice. […] Tumor volumes are presented (average ±SEM). (B) 3-4 mice from each group presented in A were euthanized when tumors reached 1,500 mm 3 Tumors were extracted and subjected to immunoblotting. Tubulin (TUB) served as the loading control. (C and D) AXL-overexpressing (C) and AXL-knockout PC9 cells (2×10^6, D), along with naïve cells, were subcutaneously implanted in mice. When tumors became palpable, mice were randomized and treated as in A. (E) Data were re-analyzed for AXL mRNA levels in 23 patients with EGFR+NSCLC. Specimens (total=53) were collected at several time points, prior to and after treatment with osimertinib. (F and G) AXL-overexpressing (OX; F) or AXL-knockout PC9 cells (KO; G), along with naïve cells, were untreated or treated with TKIs (1 or 3 μM). Drugs and media were refreshed on day 3 and 6. On day 9, remaining cells (DTPs) were fixed, stained and quantified. Averages±S.D. (triplicates) are shown.

[4] = system: RAD18; assay: RAD18 immunoprecipitation and immunoblotting in DTPs; assay type: cell-based; conditions: erlotinib 1 μM, 2-9 days
Experimental: FIGS. 3A-G. AXL and RAD18 are functionally linked. (B) PC9 cells were treated with erlotinib (1 μM), or DMSO and RNA was subjected to real time PCR. (C) Transcriptomic data corresponding to 506 patients with lung adenocarcinoma were used to generate an expression correlogram of 19 DNA damage response genes. Pearson correlation coefficients are indicated in each square (see scale code). (D) Parental and RAD18 knockout cells were treated for 9 days with a TKI. Fractions of surviving DTPs are shown. (E) Naïve and RAD18-knockout cells were probed using anti-AXL or anti-RAD18 antibodies. Thereafter, the cells were processed for proximity ligation analysis (red signals). Representative images and PLA quantification are shown. Bar, 20 μm. (F) Cells were treated for 2-9 days with erlotinib (1 μM) or H2O2 (40 μM). Extracts were subjected to immunoprecipitation with an anti-RAD18 or control antibody and immunoprecipitates were immunoblotted. (G) Naïve and AXL-overexpressing cells, along with PC9ER cells, were treated with erlotinib (1 μM). Genomic DNA was isolated after 9 days and the T790M point mutation was determined using digital PCR. Shown are fraction of T790M in cellular DNA. Data are means ±SEM (4 experiments). […]

| SMILES | increase in base alterations in relapsing tumors [1] | increase in base alterations in relapsing tumors [2] | AXL mRNA levels in EGFR tumors of patients [3] | ubiquitination of PCNA [4] | ubiquitination of RAD18 [4] |
| --- | --- | --- | --- | --- | --- |
| C=CC(=O)Nc1cc(Nc2nccc(-c3cn(C)c4ccccc34)n2)c(OC)cc1N(C)CCN(C)C [osimertinib] | 2.52 fold | 2.37 fold | AXL up-regulation | – | – |
| C#Cc1cccc(Nc2ncnc3cc(OCCOC)c(OCCOC)cc23)c1 [erlotinib] | 2.42 fold | 2.31 fold | – | increased ubiquitination of PCNA | reduced ubiquitination of RAD18 |
